Data on two compounds can be found in BindingDB's records for patent US20250313535 (Dice Molecules Sv, 2025).

The assay addresses Integrin alpha-4/beta-7 (Homo sapiens, UniProt P13612+P26010). The assay is described as follows: Inhibition of α4β7 and α4β1 Integrins. On the procedure: MAdCAM (R&D Systems, 0.1 ug) was diluted in 50 μL PBS, added to each well of an opaque ELISA plate (Thermo), and incubated overnight at 4° C. Coated plates were washed once with PBS and then blocked with 200 μL of assay buffer (10 mM HEPES, 150 mM NaCl, 1 mM MnCl2, 0.1 mM CaCl2), 1% BSA) for 1 hour at 37° C. and 5% CO2. After incubation, buffer was aspirated from the plates and 50 μL of fresh assay buffer is added. Compounds were added by a compouns dispenser (Tecan) and DMSO concentration was normalized to 1% across each plate. 50 μL of RPMI-8866 cells (2×10^6 per mL) were added to each well and the plates were incubated for 1 hour at 37° C. and 5% CO2. After incubation, plates were allowed to cool to RT for 10 minutes before being washed four times in assay buffer by an automated plate washer (BioTek). After washing, 100 μL of a 1:1 mixture of assay buffer and CellTiter GLO 2.0 reagent (Promega) were added to each well. Plates were mixed for 2 minutes at 1000 rpm and then allowed to incubate an additional 10 minutes before reading out luminescence on a Tecan Spark plate reader. Raw data was converted to percent inhibition based on DMSO only and control compound wells, and curves were analyzed by 4-parameter fit within Dotmatics software.

Structures are written as SMILES. pIC50: −log10 of the molar value.

One may read the pIC50 as −log10 of the IC50, conventionally taken in molar units. A high value points to a small IC50.

Sequence of Integrin alpha-4/beta-7 (P13612 whole entry): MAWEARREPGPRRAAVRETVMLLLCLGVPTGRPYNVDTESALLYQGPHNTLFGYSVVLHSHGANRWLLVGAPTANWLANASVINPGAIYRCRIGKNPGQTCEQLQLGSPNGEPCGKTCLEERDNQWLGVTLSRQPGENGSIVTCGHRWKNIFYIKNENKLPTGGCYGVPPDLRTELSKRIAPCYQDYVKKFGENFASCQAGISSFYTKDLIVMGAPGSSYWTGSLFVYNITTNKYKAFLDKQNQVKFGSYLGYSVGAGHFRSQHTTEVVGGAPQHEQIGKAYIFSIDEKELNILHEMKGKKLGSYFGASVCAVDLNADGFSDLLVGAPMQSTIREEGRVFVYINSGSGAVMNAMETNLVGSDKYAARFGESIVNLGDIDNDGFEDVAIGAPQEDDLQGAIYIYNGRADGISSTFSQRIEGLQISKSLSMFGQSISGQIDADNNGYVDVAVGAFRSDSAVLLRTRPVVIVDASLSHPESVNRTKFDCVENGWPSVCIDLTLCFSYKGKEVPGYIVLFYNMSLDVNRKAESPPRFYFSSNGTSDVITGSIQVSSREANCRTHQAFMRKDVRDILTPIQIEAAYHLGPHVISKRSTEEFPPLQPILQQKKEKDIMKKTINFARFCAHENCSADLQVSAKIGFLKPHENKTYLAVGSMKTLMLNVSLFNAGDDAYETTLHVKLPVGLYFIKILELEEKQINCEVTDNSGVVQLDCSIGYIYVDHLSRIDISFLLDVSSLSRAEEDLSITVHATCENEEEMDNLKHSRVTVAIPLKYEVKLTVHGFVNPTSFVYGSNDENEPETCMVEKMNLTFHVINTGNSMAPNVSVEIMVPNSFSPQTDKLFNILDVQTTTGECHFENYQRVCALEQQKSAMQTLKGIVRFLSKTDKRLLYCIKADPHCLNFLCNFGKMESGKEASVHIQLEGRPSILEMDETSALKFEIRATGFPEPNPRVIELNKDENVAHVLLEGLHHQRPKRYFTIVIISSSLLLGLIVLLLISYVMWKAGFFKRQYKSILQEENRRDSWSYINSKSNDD
Sequence of Integrin alpha-4/beta-7 (P26010 whole entry): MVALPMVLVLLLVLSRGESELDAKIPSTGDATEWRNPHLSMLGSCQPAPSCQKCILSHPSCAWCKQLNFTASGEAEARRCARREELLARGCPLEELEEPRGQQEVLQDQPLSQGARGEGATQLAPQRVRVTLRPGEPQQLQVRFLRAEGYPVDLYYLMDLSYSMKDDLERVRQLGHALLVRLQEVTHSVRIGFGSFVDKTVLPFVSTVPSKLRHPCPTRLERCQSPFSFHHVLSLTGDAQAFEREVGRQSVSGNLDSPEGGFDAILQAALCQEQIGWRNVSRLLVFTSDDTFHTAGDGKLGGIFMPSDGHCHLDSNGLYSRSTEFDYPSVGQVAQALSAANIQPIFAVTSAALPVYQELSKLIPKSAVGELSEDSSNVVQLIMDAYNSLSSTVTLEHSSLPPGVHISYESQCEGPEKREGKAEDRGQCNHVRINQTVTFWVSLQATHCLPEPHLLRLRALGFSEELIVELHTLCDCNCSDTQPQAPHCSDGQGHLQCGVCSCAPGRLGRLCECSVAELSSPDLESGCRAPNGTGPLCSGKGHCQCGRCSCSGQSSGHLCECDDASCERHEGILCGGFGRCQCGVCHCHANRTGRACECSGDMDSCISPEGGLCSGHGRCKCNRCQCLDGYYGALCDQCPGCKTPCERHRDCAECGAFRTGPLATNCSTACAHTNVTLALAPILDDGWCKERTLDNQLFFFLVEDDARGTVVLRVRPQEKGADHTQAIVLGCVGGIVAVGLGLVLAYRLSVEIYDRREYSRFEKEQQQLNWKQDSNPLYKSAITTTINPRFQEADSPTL

For `Cn1ccc(C(F)(F)F)c(-c2nccc3c(C[C@H](NC(=O)c4c(F)cc(N(CC(F)(F)F)CC(F)(F)F)cc4F)C(=O)O)cccc23)c1=O` [US20250313535, Compound 237], the pIC50 is > 8.00.

In the case of `Cn1c(=O)c(-c2cccc3c(C[C@H](NC(=O)c4c(F)cc(NC5CCC(F)(F)C5)cc4F)C(=O)O)cccc23)c(C(F)(F)F)c2ccccc21` (some centres not stated) [US20250313535, Compound 386], the pIC50 was < 7.00.
